Like-named read-outs stand apart in the source and are kept apart here.
How the values were obtained:
Human α4β2 = target: T1, Human α4β2 (Homo sapiens, UniProt P17787+P43681); test: Competition binding to receptors in membrane preparations, human α4β2 ([3H]-nicotine)
T1 construct: expressed in transfected cells; obtained from Dr. Ron Lukas, Barrow Neurological Institute
Procedure: (§1) SH-EP1/human α4β2 (Eaton et al., 2003), SH-EP1/human α4β4 (Gentry et al., 2003), SH-EP1/α6β3β4α5 (Grinevich et al., 2005), TE671/RD and SH-SY5Y cell lines (obtained from Dr. Ron Lukas, Barrow Neurological Institute) were maintained in proliferative growth phase in Dulbecco's modified Eagle's medium (Gibco/BRL) with 10% horse serum (Gibco BRL), 5% fetal bovine serum (HyClone, Logan Utah), 1 mM sodium pyruvate, 4 mM L-glutamine. For maintenance of stable transfectants, the α4β2 and α4β4 cell media was supplemented with 0.25 mg/mL zeocin and 0.13 mg/mL hygromycin B. Selection was maintained for the α6β3β4α5 cells with 0.25 mg/mL of zeocin, 0.13 mg/mL of hygromycin B, 0.4 mg/mL of geneticin, and 0.2 mg/mL of blasticidin. HEK/human α7/RIC3 cells (obtained from J. Lindstrom, U. Pennsylvania) were maintained in proliferative growth phase in Dulbecco's modified Eagle's medium (Gibco/BRL) with 10% fetal bovine serum (HyClone, Logan Utah), 1 mM sodium pyruvate, 4 mM L-glutamine, 0.4 mg/mL geneticin; 0.2 mg/ml hygromycin B.
(§2) Cells were harvested in ice-cold PBS, pH 7.4, then homogenized with a polytron (Brinkmann Instruments, Westbury, N.Y.). Homongenates were centrifuged at 40,000 g for 20 minutes (4° C.). The pellet was resuspended in PBS and protein concentration determined using the Pierce BCA Protein Assay kit (Pierce Biotechnology, Rockford, Ill.).
(§3) Binding to nicotinic receptors was assayed on membranes using standard methods adapted from published procedures (Lippiello and Fernandes, 1986; Davies et al., 1999). In brief, membranes were reconstituted from frozen stocks (approximately 0.2 mg protein) and incubated for 2 h on ice in […] assay buffer (PBS) in the presence of competitor compound (0.001 nM to […]) and radioligand. [^3H]-nicotine (L-(−)-[N-methyl-3H]-nicotine, 69.5 Ci/mmol, Perkin-Elmer Life Sciences) was used for human α4β2 binding studies. [^3H]-epibatidine (52 Ci/mmol, Perkin-Elmer Life Sciences) was used for binding studies at the other receptor subtypes. Incubation was terminated by rapid filtration on a multimanifold tissue harvester (Brandel, Gaithersburg, Md.) using GF/B filters presoaked in 0.33% polyethyleneimine (w/v) to reduce non-specific binding. Filters were washed 3 times and the radioactivity retained was determined by liquid scintillation counting.
(§4) Binding data were expressed as percent total control binding. Replicates for each point were averaged and plotted against the log of drug concentration. The IC50 (concentration of the compound that produces 50% inhibition of binding) was determined by least squares non-linear regression using GraphPad Prism software (GraphPAD, San Diego, Calif.). Ki was calculated using the Cheng-Prusoff equation (Cheng and Prusoff, 1973).

Human Ganglion = target: T2, Human Ganglion (Homo sapiens, UniProt P30926+P32297); test: Competition binding to receptors in membrane preparations, human ganglion subtype ([3H]-epibatidine)
T2 construct: endogenous in cells
Procedure: as §1, §2, §3, §4

Rat Ganglion = Rat Ganglion (Rattus norvegicus, UniProt P04757+P12392); test: Competition binding to receptors in membrane preparations, rat ganglion subtype ([3H]-epibatidine)
Procedure: as §3, §4

Human α7 nAChR = target: T3, Human α7 nAChR (Homo sapiens, UniProt P36544); test: Competition binding to receptors in membrane preparations, human α7 ([3H]-epibatidine)
T3 construct: expressed in transfected cells; host or cells: HEK cells co-expressing RIC3 (from J. Lindstrom, U. Pennsylvania)
Procedure: as §1, §2, §3, §4

Structure (SMILES) | Ki (Human α4β2; read-out: Human α4β2 Ki) [µM] | Ki (Human Ganglion) [µM] | Ki (Rat Ganglion) [µM] | Ki (Human α7 nAChR) [µM] | Ki (Human Ganglion; read-out: Human Ganglion Ki) [µM] | Ki (Human α4β2) [µM]
CN[C@@H](C)C/C=C/c1cncc(OC2CN(C(=O)C3CCOCC3)C2)c1 | 0.0048 |  |  |  |  | 
CCNC(=O)N1CC[C@@H](Oc2cncc(/C=C/C[C@H](C)NC)c2)C1 | 0.0099 | 140 |  |  |  | 
CN[C@@H](C)C/C=C/c1cncc(O[C@@H]2CCN(C(=O)C3CCC3)C2)c1 | 0.0061 | 26 | 45 | 58 |  | 
CCCOC(=O)N1CC[C@@H](Oc2cncc(/C=C/C[C@H](C)NC)c2)C1 | 0.0051 |  |  |  | 37 | 
CN[C@@H](C)C/C=C/c1cncc(O[C@@H]2CCN(C(=O)c3ccc(F)cc3)C2)c1 | 0.0067 | 6.8 | 100 | 53 |  | 
CN[C@@H](C)C/C=C/c1cncc(O[C@@H]2CCN(C(=O)c3ccc(F)cc3F)C2)c1 | 0.0059 | 3 | 19 | 41 |  | 
CN[C@@H](C)C/C=C/c1cnc(Cl)c(O[C@H]2CCN(C(=O)C(C)(C)C)C2)c1 | 0.0067 | 4.8 | 11 | 39 |  | 
CN[C@@H](C)C/C=C/c1cnc(Cl)c(O[C@@H]2CCN(C(=O)CCC(F)(F)F)C2)c1 [drawing 62] |  | 7.4 | 15 | 55 |  | 0.0014
CN[C@@H](C)C/C=C/c1cncc(O[C@@H]2CCN(C(=O)c3ccco3)C2)c1 | 0.0047 | 50 |  |  |  | 
CN[C@@H](C)C/C=C/c1cncc(O[C@H]2CCN(C(C)=O)C2)c1 | 0.012 |  |  |  |  | 
CN[C@@H](C)C/C=C/c1cnc(Cl)c(O[C@@H]2CCN(C(=O)CC3CCCC3)C2)c1 | 0.0075 |  |  | 30 |  | 
CN[C@@H](C)C/C=C/c1cnc(Cl)c(O[C@H]2CCN(C(=O)CC3CCCC3)C2)c1 | 0.0061 | 2.5 | 4 | 36 |  | 
CN[C@@H](C)C/C=C/c1cncc(O[C@@H]2CCN(C(C)=O)C2)c1 | 0.0026 | 41 | 24 |  |  | 
CN[C@@H](C)C/C=C/c1cncc(O[C@@H]2CCN(C(=O)CCC(F)(F)F)C2)c1 | 0.0043 | 19 | 43 | 170 |  | 
CN[C@@H](C)C/C=C/c1cnc(Cl)c(O[C@@H]2CCN(C(=O)C(C)C)C2)c1 | 0.0015 |  |  | 36 |  | 
CN[C@@H](C)C/C=C/c1cncc(O[C@H]2CCN(C(=O)CC(F)(F)F)C2)c1 | 0.003 | 5.4 | 6.8 | 68 |  | 
CN[C@@H](C)C/C=C/c1cncc(O[C@@H]2CCN(C(=O)CC3CCCC3)C2)c1 | 0.011 | 5.8 | 170 | 53 |  | 
CN[C@@H](C)C/C=C/c1cncc(O[C@H]2CCN(C(=O)C3CCOCC3)C2)c1 | 0.013 | 100 | 51 |  |  | 
CN[C@@H](C)C/C=C/c1cnc(Cl)c(O[C@H]2CCN(C(=O)C(C)C)C2)c1 | 0.013 | 27 | 16 | 29 |  | 
CN[C@@H](C)C/C=C/c1cnc(Cl)c(O[C@H]2CCN(C(=O)CC(C)(C)C)C2)c1 | 0.0064 | 15 | 11 | 48 |  | 
CN[C@@H](C)C/C=C/c1cnc(Cl)c(O[C@@H]2CCN(C(=O)CC(F)(F)F)C2)c1 | 0.0012 | 18 | 8.5 | 300 |  | 
CN[C@@H](C)C/C=C/c1cncc(O[C@H]2CCN(C(=O)c3ccc(F)cc3)C2)c1 | 0.0052 | 14 | 190 | 58 |  | 
CN[C@@H](C)C/C=C/c1cncc(O[C@H]2CCN(C(=O)CCC(F)(F)F)C2)c1 | 0.011 | 18 | 33 | 49 |  | 
CCC(=O)N1CC[C@H](Oc2cncc(/C=C/C[C@H](C)NC)c2)C1 | 0.0097 | 43 | 40 |  |  | 
CN[C@@H](C)C/C=C/c1cncc(O[C@H]2CCN(C(=O)CC(C)(C)C)C2)c1 |  | 12 | 21 | 65 |  | 0.011
CN[C@@H](C)C/C=C/c1cncc(O[C@@H]2CCN(C(=O)C3CCCC3)C2)c1 | 0.0074 | 14 | 28 | 26 |  | 

Structure (SMILES) | Ki (Human α4β2; read-out: Human α4β2 Ki) [µM] | Ki (Human Ganglion) [µM] | Ki (Rat Ganglion) [µM] | Ki (Human α7 nAChR) [µM] | Ki (Human Ganglion; read-out: Human Ganglion Ki) [µM] | Ki (Human α4β2) [µM]
CN[C@@H](C)C/C=C/c1cnc(Cl)c(O[C@@H]2CCN(C(=O)C3CCC3)C2)c1 | 0.0015 |  |  | 45 |  | 
CN[C@@H](C)C/C=C/c1cncc(O[C@@H]2CCN(C(=O)CC(C)(C)C)C2)c1 |  | 43 | 35 | 260 |  | 0.032
CN[C@@H](C)C/C=C/c1cnc(Cl)c(O[C@H]2CCN(C(=O)C3CCCC3)C2)c1 | 0.0021 | 7.6 | 55 | 160 |  | 
CN[C@@H](C)C/C=C/c1cnc(Cl)c(O[C@@H]2CCN(C(=O)c3ccc(F)cc3)C2)c1 | 0.0033 | 2 | 3.7 | 61 |  | 
CN[C@@H](C)C/C=C/c1cncc(OC2CN(C(=O)COC)C2)c1 | 0.0049 |  |  |  | 42 | 
CN[C@@H](C)C/C=C/c1cncc(O[C@@H]2CCN(C(=O)COC)C2)c1 | 0.0091 | 55 |  |  |  | 
CCCOC(=O)N1CC(Oc2cncc(/C=C/C[C@H](C)NC)c2)C1 | 0.0039 | 44 |  |  |  | 
CCC(=O)N1CC(Oc2cncc(/C=C/C[C@H](C)NC)c2)C1 | 0.0022 |  |  |  |  | 
CN[C@@H](C)C/C=C/c1cnc(Cl)c(O[C@H]2CCN(C(=O)c3ccc(F)cc3F)C2)c1 | 0.022 |  |  | 23 |  | 
CN[C@@H](C)C/C=C/c1cncc(O[C@H]2CCN(C(=O)CC3CCCC3)C2)c1 | 0.0086 | 26 | 11 | 49 |  | 
CN[C@@H](C)C/C=C/c1cncc(O[C@H]2CCN(C(=O)c3ccco3)C2)c1 | 0.0012 | 72 |  |  |  | 
CN[C@@H](C)C/C=C/c1cncc(O[C@@H]2CCN(C(=O)C3CCOCC3)C2)c1 | 0.0044 | 44 |  |  |  | 
CCNC(=O)N1CC[C@H](Oc2cncc(/C=C/C[C@H](C)NC)c2)C1 | 0.061 | 250 |  |  |  | 
CN[C@@H](C)C/C=C/c1cnc(Cl)c(O[C@@H]2CCN(C(=O)C3CCCC3)C2)c1 | 0.0029 |  |  | 6.1 |  | 
CN[C@@H](C)C/C=C/c1cncc(O[C@@H]2CCN(C(=O)C(C)(C)C)C2)c1 | 0.017 | 21 | 100 | 51 |  | 
CCC(=O)N1CC[C@@H](Oc2cncc(/C=C/C[C@H](C)NC)c2)C1 | 0.0019 | 19 | 88 |  |  | 
CN[C@@H](C)C/C=C/c1cncc(O[C@@H]2CCN(C(=O)C3CC3)C2)c1 | 0.0051 | 83 |  |  |  | 
CN[C@@H](C)C/C=C/c1cncc(O[C@H]2CCN(C(=O)C3CCCC3)C2)c1 | 0.0078 | 13 | 6.9 | 85 |  | 
CN[C@@H](C)C/C=C/c1cncc(O[C@H]2CCN(C(=O)COC)C2)c1 | 0.0044 | 21 |  |  |  | 
CN[C@@H](C)C/C=C/c1cncc(O[C@H]2CCN(C(=O)C3CC3)C2)c1 | 0.014 | 20 |  |  |  | 
CCCOC(=O)N1CC[C@H](Oc2cncc(/C=C/C[C@H](C)NC)c2)C1 | 0.0077 |  |  |  | 25 | 
CN[C@@H](C)C/C=C/c1cnc(Cl)c(O[C@@H]2CCN(C(=O)CC(C)(C)C)C2)c1 | 0.016 |  |  | 6.5 |  | 
CN[C@@H](C)C/C=C/c1cncc(OC2CN(C(=O)OCCOC)C2)c1 | 0.0096 | 69 |  |  |  | 
CN[C@@H](C)C/C=C/c1cncc(OC2CN(C(=O)c3ccco3)C2)c1 | 0.0028 |  |  |  | 20 | 
CN[C@@H](C)C/C=C/c1cncc(O[C@H]2CCN(C(=O)OCCOC)C2)c1 | 0.053 |  |  |  | 270 | 
CN[C@@H](C)C/C=C/c1cncc(O[C@@H]2CCN(C(=O)OCCOC)C2)c1 | 0.0066 |  |  |  | 48 | 

Reference: patent US20150119378A1, “AZETIDINYLOXY-, PYRROLIDINYLOXY-, AND PIPERIDINYLOXY-SUBSTITUTED METANICOTINES AS NEURONAL NICOTINIC ACETYLCHOLINE RECEPTOR LIGANDS” (priority 2013, published 2015)
